Laboratory results published in patent publication EP2815749A1, “Solid form of 4-amino-2-(2,6-dioxopiperidine-3-yl)isoindoline-1,3-dione having specified X-ray diffraction pattern” (IP Gesellschaft für Management mbH, priority 2013, dated 2014).
Where a name gives a salt, the structure may show the parent alone. Read-outs that look alike come from different tables or passages of the source.

Key:
[1] = 1440 min
[2] = for water uptake at 5 % RH: 25°C
Protocol: (§2) Hygroscopicity: Sorption/desorption isotherms were measured using the VT1100 humidity microbalance (VTI Corporation, Hialeah, FL, USA). Measurements were carried out at 25°C. Samples were dried under N2 flow at 25°C. […] Concentration in supernatant was measured by gravimetry for organic solvents and by HPLC from aqueous solvents and propylene glycol.

[3] = for Stability in water: 2 days at 50°C
Protocol: as §2

[4] = Moisture sorption isotherm of Example 1; type: physicochemical; conditions: 25°C
Text: Example 1 has moisture sorption weight gains of 0.8 weight % and 2.8 weight % between 25% and 75% relative humidity and 5% and 95% relative humidity, respectively. […] PXRD Peak Positions (degrees 2Θ±0.1):
The hemisulfate salt of Compound (VI) has the surprising advantage of reducing the variability in the bioavailability of Compound (VI) and/or increasing the bioavailability of Compound (VI) to the patient. Based on these in vitro and in vivo data, it is expected that the hemisulfate will provide a significant advantage of consistency in bioavailability among patients over the free form. […] Single Crystal Data (LVL): Data were collected on a Bruker-Nonius CAD4 serial diffractometer. […] Intensities were measured using Cu Ka radiation (λ = 1.5418 A) at a constant temperature with the Θ-2Θ variable scan technique and were corrected only for Lorentz-polarization factors. […] Indexing and processing of the measured intensity data were carried out with the HKL2000 software package (Otwinowski, Z & Minor, W. (1997) in Macromolecular Crystallography, eds. Carter, W.C. Jr. & Sweet, R.M. (Academic, NY), Vol. 276, pp307-326) in the Collect program suite. […] Indexing and processing of the measured intensity data were carried out with the APEX2 software package/program suite (APEX2 Data collection and processing user interface: APEX2 User Manual, v1.27; BRUKER AXS, inc., Madison, WI). […]

[5] = In vivo pharmacokinetics of Compound (VI) free base and hemisulfate salt capsules; conditions: dogs; for bioavailability: oral capsule, 150 mg of Compound (VI) (or equivalent), after pretreatment with famotidine (40 mg)
Protocol: An aliquot of 0.050 mL of dog EDTA plasma was used for the assay. […] A 450 µï^ portion of the organic layer was removed and evaporated to dryness. The residue was reconstituted in 300 µl, of the reconstitution solution (30% acetonitrile in 10 mM NH40Ac with 0.01% acetic acid). All liquid transfer steps were performed using a Perkin Elmer JANUS Mini® liquid handler except for the addition of the internal standard solution. A 5 µï^ aliquot of the extracted sample was injected to uHPLC-MS/MS system. The uHPLC was performed on a LEAP 4X Ultra uHPLC system with LEAP HTC PAL autosampler. Mobile phase A contained 10 mM NH4OAc and 0.01% acetic acid in ACN/water (10:90), and mobile phase B contained 10 mM NH4OAc and 0.01% acetic acid in ACN/water (90: 10). […] The flow rate was 0.6 mL/min and column temperature was maintained at 60°C condition. Detection was accomplished using an AB Sciex Triple Quad 5500 mass spectrometer in positive ESI with turbo ion spray ionization and using multiple reaction monitoring (MRM) mode. […] Data acquisition and quantification were performed using AB Sciex Analyst® 1.5.1 software.

[6] = Stability in water slurry; type: physicochemical; conditions: room temperature, after two days
Protocol: (§1) Other Crystalline Forms of Example 1: Form P22C: prepared by heating Form HI.5-1 ({drug6b}) at 60°C for 2 hours or at 75°C for 5 minutes. […] Form P33 ({drug6c}): Form HI.5-1 ({drug6b}) converted to Form P33 ({drug6c}) between 50°C and 75°C in variable temperature PXRD experiment. […] Form P35: Prepared from slurry of Form HI.5-1 ({drug6b}) in dry MeOH under molecular sieves (7% RH). Converted to Form P33 ({drug6c}) when dried at 60°C. Stability in Water Slurry: An aqueous slurry of Example 1 was prepared and stored at room temperature. […] The hemisulfate salt of Compound (VI) has the surprising advantage of providing a salt that is physically stable and chemically stable compared to other salts of Compound (VI). Further, the hemisulfate salt had the surprising advantage of being provided in a stable crystalline form, Form HI.5-1 ({drug6b}).

[7] = Water activity studies between crystalline forms; type: physicochemical
Protocol: as §1

[8] = Solid state stability study of Example 1 (hemisulfate salt, Form HI.5-1); type: physicochemical
Protocol: Stability Study: The solid state stability of Example lwas tested by exposing samples to various temperature and relative humidity conditions for periods of 1, 2, and 4 weeks. […] Table 4: Solid State Stability of Hemisulfate Salt, Form HI.5-1 ({drug6b}): […]

[9] = Salt screening and crystalline salt characterization of Compound (VI); conditions: for Hygroscopicity: ambient temperature and relative humidity conditions, hemisulfate salt
Protocol: The screening examined acid type, acid level (equivalents), and/or type of crystallization solvent. Each plate contained 96 well plates (8 rows of 12 columns per plate). […] The solution (12.5 mL) was transferred to 24 vials. To each vial was added 0.25 M EtOH stock solutions of the following acids:
The content of each vial was transferred to 12 crystallization wells and evaporated to dryness. Upon evaporation, each well was charged with 100 µl of solvent using a robotic liquid handler. The following crystallization solvents were tested: methyl isobutyl ketone (MIBK), ethyl acetate, toluene, THF, acetonitrile, acetone, isopropanol, ethanol, methanol, 1,2-dichloroethylene, isopropanol/water (50:50), and water. Next, the plates were sealed with Teflon septa and subjected to temperature cycling. […] After the heating/cooling cycle, the contents of the wells were characterized by birefringent imaging. Perceived crystalline hits were further characterized by PXRD analysis.

[10] = 25 RH/ 60 °C (first such line, r3), 1 week
[11] = 25 RH/ 60 °C (first such line, r3), 2 weeks
[12] = 25 RH/ 60 °C (first such line, r3), 4 weeks
[13] = 25 RH/ 60 °C (first such line, r3), Initial
[14] = 25 RH/ 60 °C (second such line, r5), 1 week
[15] = 25 RH/ 60 °C (second such line, r5), 2 weeks
[16] = 25 RH/ 60 °C (second such line, r5), 4 weeks
[17] = 25 RH/ 60 °C (third such line, r6), 1 week
[18] = 25 RH/ 60 °C (third such line, r6), 2 weeks
[19] = 25 RH/ 60 °C (third such line, r6), 4 weeks

N#Cc1ccc([C@H]2CCc3cncn32)c(F)c1 [nitrate salt, 4-(R)-(6,7-dihydro-5H-pyrrolo[1,2-c]imidazol-5-yl)-3-fluoro-benzonitrile]
solubility ([1]; pH 1, 25°C): > 50 mg/mL | water uptake at 5 % RH [2]: 0% | Moisture gain ([2]; r.h. 0%): 0.0% | Moisture gain ([2]; r.h. 5%): 0.0% | Moisture gain ([2]; r.h. 25%): 0.1% | Moisture gain ([2]; r.h. 50%): 0.2% | Moisture gain ([2]; r.h. 75%): 0.2% | Moisture gain ([2]; r.h. 85%): 0.2% | Moisture gain ([2]; r.h. 95%): 0.2% | Stability in water [3]: stable | Solubility in water at the 0.1% target concentration ([3]; water): soluble

N#Cc1ccc([C@H]2CCc3cncn32)c(F)c1 [phosphate salt, 4-(R)-(6,7-dihydro-5H-pyrrolo[1,2-c]imidazol-5-yl)-3-fluoro-benzonitrile]
solubility ([1]; pH 6.8, 25°C): > 50 mg/mL | water uptake at 5 % RH [2]: 0% | Moisture gain ([2]; r.h. 0%): 0.0% | Moisture gain ([2]; r.h. 5%): 0.0% | Moisture gain ([2]; r.h. 25%): 0.1% | Moisture gain ([2]; r.h. 50%): 0.1% | Moisture gain ([2]; r.h. 75%): 0.2% | Moisture gain ([2]; r.h. 85%): 0.3% | Moisture gain ([2]; r.h. 95%): 0.8% | Stability in water [3]: stable

N[C@@H]1c2cccnc2[C@H](OC(=O)N2CCC(n3c(=O)[nH]c4ncccc43)CC2)CC[C@H]1c1cccc(F)c1F [Example 1, (5S,6S,9R)-5-Amino-6-(2,3-difluorophenyl)-6,7,8,9-tetrahydro-5H-cyclohepta[b]pyridin-9-yl 4-(2-oxo-2,3-dihydro-1H-imidazo[4,5-b]pyridin-1-yl) piperidine-1-carboxylate, Hemisulfate Salt]
moisture sorption weight gain ([4]; between 5% and 95% relative humidity): 2.8 weight % | moisture sorption weight gain ([4]; between 25% and 75% relative humidity): 0.8 weight % | BA Mean ([5]; 150 mg capsule oral, famotidine pretreatment): 34.73% | Chemical degradation in aqueous slurry [6]: no significant chemical degradation | PXRD pattern after aqueous slurry [6]: no change in the PXRD pattern | Relative stability (water activity) ([7]; versus Form P22C): more stable at > 23% relative humidity | Relative stability (water activity) ([7]; versus Form P33): more stable at > 23% relative humidity | % pot. [8, 10]: 94.4% | % total imp. [8, 10]: 0.27% | % pot. [8, 11]: 96.8% | % total imp. [8, 11]: 0.27% | % pot. [8, 12]: 96.9% | % total imp. [8, 12]: 0.27% | % pot. [8, 13]: 98.5% | % total imp. [8, 13]: 0.27% | % pot. [8, 14]: 95.1% | % total imp. [8, 14]: 0.27% | % pot. [8, 15]: 98.5% | % total imp. [8, 15]: 0.27% | % pot. [8, 16]: 97.0% | % total imp. [8, 16]: 0.27% | % pot. [8, 17]: 101.6% | % total imp. [8, 17]: 0.28% | % pot. [8, 18]: 102.6% | % total imp. [8, 18]: 0.27% | % pot. [8, 19]: 110.0% | % total imp. [8, 19]: 0.27% | % pot. ([8]; HIL/UV, 1 week): 100.7% | % total imp. ([8]; HIL/UV, 1 week): 0.27% | % pot. ([8]; HIL/UV, 2 weeks): 96.9% | % total imp. ([8]; HIL/UV, 2 weeks): 0.27% | % pot. ([8]; Refrigerated, 1 week): 98.0% | % total imp. ([8]; Refrigerated, 1 week): 0.29% | % pot. ([8]; Refrigerated, 2 weeks): 96.5% | % total imp. ([8]; Refrigerated, 2 weeks): 0.27% | % pot. ([8]; Refrigerated, 4 weeks): 105.7% | % total imp. ([8]; Refrigerated, 4 weeks): 0.27% | % pot. ([8]; Refrigerated, Initial): 98.5% | % total imp. ([8]; Refrigerated, Initial): 0.27% | Solid state stability ([8]; various temperature and relative humidity conditions, up to four weeks of storage): stable

N[C@@H]1c2cccnc2[C@H](OC(=O)N2CCC(n3c(=O)[nH]c4ncccc43)CC2)CC[C@H]1c1cccc(F)c1F [hemisulfate salt of Compound (VI), (5S,6S,9R)-5-amino-6-(2,3-dfluorophenyl)-6,7,8,9-tetrahydro-5H-cyclohepta[b] pyridin-9-yl 4-(2-oxo-2,3-dihydro-1 H-imidazo[4,5-b]pyridin-1-yl)piperidine-1-carboxylate, hemisulfate salt]
bioavailability ([5]; hemisulfate salt): 34.73% | Chemical stability [9]: chemically stable | Physical stability [9]: physically stable | Hygroscopicity [9]: low hygroscopicity | Hygroscopicity ([9]; listed as Sulfuric acid): low/non-hygroscopic at ambient temperatures and relative humidity conditions

N[C@@H]1c2cccnc2[C@H](OC(=O)N2CCC(n3c(=O)[nH]c4ncccc43)CC2)CC[C@H]1c1cccc(F)c1F [Compound (VI), N-(5S,6S,9R)-5-amino-6-(2,3-10-difluorophenyl)-6,7,8,9-tetrahydro-5H-cyclohepta[b]pyridin-9-yl-4-(2-oxo-2,3-dihydro-1H-imidazo[4,5-b]pyridin-1-yl)piperidine-1-carboxylate]
bioavailability ([5]; listed as Compound (VI) free base): 4.54%
